Values after ≈ are worked out from the molar mass of the structure shown.
Tests used:
[1] = tested on: Aspergillus parasiticus; experiment: Antifungal activity against Aspergillus parasiticus NRRL 465 after 72 hrs by broth microdilution method; assay type: functional; conditions: NRRL 465, 72 h
[2] = tested on: Fusarium solani; experiment: Antifungal activity against Fusarium solani NRRL-13414 after 72 hrs by broth microdilution method; assay type: functional; conditions: NRRL-13414, 72 h
[3] = tested on: Salmonella typhimurium; experiment: Genotoxicity in Salmonella typhimurium TA1535/pSK1002 assessed as growth factor at 0.3125 mg/ml after 2 hrs by umuC assay in presence of Sprague-Dawley rat liver S9 fraction; assay type: toxicity, organism-based; conditions: salmonella enterica subsp. enterica serovar typhimurium, s9, 2 h
[4] = tested on: Salmonella typhimurium; experiment: Genotoxicity in Salmonella typhimurium TA1535/pSK1002 assessed as growth factor at 1.25 mg/ml after 2 hrs by umuC assay in presence of Sprague-Dawley rat liver S9 fraction; assay type: toxicity, organism-based; conditions: salmonella enterica subsp. enterica serovar typhimurium, s9, 2 h
[5] = tested on: Salmonella typhimurium; experiment: Genotoxicity in Salmonella typhimurium TA1535/pSK1002 assessed as growth factor at 2.5 mg/ml after 2 hrs by umuC assay in presence of Sprague-Dawley rat liver S9 fraction; assay type: toxicity, organism-based; conditions: salmonella enterica subsp. enterica serovar typhimurium, s9, 2 h
[6] = tested on: Salmonella typhimurium; experiment: Genotoxicity in Salmonella typhimurium TA1535/pSK1002 assessed as growth factor at 2.5 mg/ml after 2 hrs by umuC assay in absence of Sprague-Dawley rat liver S9 fraction; assay type: toxicity, organism-based; conditions: salmonella enterica subsp. enterica serovar typhimurium
[7] = tested on: Salmonella typhimurium; experiment: Genotoxicity in Salmonella typhimurium TA1535/pSK1002 assessed as growth factor at 5 mg/ml after 2 hrs by umuC assay in absence of Sprague-Dawley rat liver S9 fraction; assay type: toxicity, organism-based; conditions: salmonella enterica subsp. enterica serovar typhimurium
[8] = Genotoxicity in Salmonella typhimurium TA1535/pSK1002 assessed as induction ratio at 0.156 mg/ml after 2 hrs by umuC assay in presence of Sprague-Dawley rat liver S9 fraction; assay type: toxicity, organism-based; conditions: salmonella enterica subsp. enterica serovar typhimurium
[9] = Genotoxicity in Salmonella typhimurium TA1535/pSK1002 assessed as induction ratio at 0.3125 mg/ml after 2 hrs by umuC assay in presence of Sprague-Dawley rat liver S9 fraction; assay type: toxicity, organism-based; conditions: salmonella enterica subsp. enterica serovar typhimurium
[10] = Genotoxicity in Salmonella typhimurium TA1535/pSK1002 assessed as induction ratio at 0.625 mg/ml after 2 hrs by umuC assay in presence of Sprague-Dawley rat liver S9 fraction; assay type: toxicity, organism-based; conditions: salmonella enterica subsp. enterica serovar typhimurium
[11] = Genotoxicity in Salmonella typhimurium TA1535/pSK1002 assessed as induction ratio at 1.25 mg/ml after 2 hrs by umuC assay in presence of Sprague-Dawley rat liver S9 fraction; assay type: toxicity, organism-based; conditions: salmonella enterica subsp. enterica serovar typhimurium
[12] = Genotoxicity in Salmonella typhimurium TA1535/pSK1002 assessed as induction ratio at 0.3125 mg/ml after 2 hrs by umuC assay in absence of Sprague-Dawley rat liver S9 fraction; assay type: toxicity, organism-based; conditions: salmonella enterica subsp. enterica serovar typhimurium
[13] = Genotoxicity in Salmonella typhimurium TA1535/pSK1002 assessed as induction ratio at 0.625 mg/ml after 2 hrs by umuC assay in absence of Sprague-Dawley rat liver S9 fraction; assay type: toxicity, organism-based; conditions: salmonella enterica subsp. enterica serovar typhimurium
[14] = Genotoxicity in Salmonella typhimurium TA1535/pSK1002 assessed as induction ratio at 1.25 mg/ml after 2 hrs by umuC assay in absence of Sprague-Dawley rat liver S9 fraction; assay type: toxicity, organism-based; conditions: salmonella enterica subsp. enterica serovar typhimurium
[15] = Genotoxicity in Salmonella typhimurium TA1535/pSK1002 assessed as induction ratio at 2.5 mg/ml after 2 hrs by umuC assay in absence of Sprague-Dawley rat liver S9 fraction; assay type: toxicity, organism-based; conditions: salmonella enterica subsp. enterica serovar typhimurium
[16] = tested on: Salmonella typhimurium; experiment: Mutagenicity in Salmonella typhimurium TA98 at 0.156 mg/ml after 48 hrs by Ames MPF assay in presence of Sprague-Dawley rat liver S9 fraction; assay type: toxicity, organism-based; conditions: salmonella enterica subsp. enterica serovar typhimurium, s9, 48 h
[17] = tested on: Salmonella typhimurium; experiment: Mutagenicity in Salmonella typhimurium TA98 at 0.3125 mg/ml after 48 hrs by Ames MPF assay in presence of Sprague-Dawley rat liver S9 fraction; assay type: toxicity, organism-based; conditions: salmonella enterica subsp. enterica serovar typhimurium, s9, 48 h
[18] = tested on: Salmonella typhimurium; experiment: Mutagenicity in Salmonella typhimurium TA98 at 0.625 mg/ml after 48 hrs by Ames MPF assay in presence of Sprague-Dawley rat liver S9 fraction; assay type: toxicity, organism-based; conditions: salmonella enterica subsp. enterica serovar typhimurium, s9, 48 h
[19] = tested on: Salmonella typhimurium; experiment: Mutagenicity in Salmonella typhimurium TA98 at 1.25 mg/ml after 48 hrs by Ames MPF assay in presence of Sprague-Dawley rat liver S9 fraction; assay type: toxicity, organism-based; conditions: salmonella enterica subsp. enterica serovar typhimurium, s9, 48 h
[20] = tested on: Salmonella typhimurium; experiment: Mutagenicity in Salmonella typhimurium TA98 at 2.5 mg/ml after 48 hrs by Ames MPF assay in presence of Sprague-Dawley rat liver S9 fraction; assay type: toxicity, organism-based; conditions: salmonella enterica subsp. enterica serovar typhimurium, s9, 48 h
[21] = tested on: Salmonella typhimurium; experiment: Mutagenicity in Salmonella typhimurium TA98 at 5 mg/ml after 48 hrs by Ames MPF assay in presence of Sprague-Dawley rat liver S9 fraction; assay type: toxicity, organism-based; conditions: salmonella enterica subsp. enterica serovar typhimurium, s9, 48 h
[22] = tested on: Salmonella typhimurium; experiment: Mutagenicity in Salmonella typhimurium TA98 at 0.3125 mg/ml after 48 hrs by Ames MPF assay in absence of Sprague-Dawley rat liver S9 fraction; assay type: toxicity, organism-based; conditions: salmonella enterica subsp. enterica serovar typhimurium
[23] = tested on: Nakaseomyces glabratus; experiment: Antifungal activity against clinical isolate Candida glabrata after 48 hrs by broth microdilution method; assay type: functional
[24] = tested on: Candida tropicalis; experiment: Antifungal activity against Candida tropicalis NRLL Y-12968 after 48 hrs by broth microdilution method; assay type: functional; conditions: NRLL Y-12968, 48 h
[25] = tested on: Pichia kudriavzevii; experiment: Antifungal activity against Candida krusei NRLL Y-7179 after 48 hrs by broth microdilution method; assay type: functional; conditions: NRLL Y-7179, 48 h
[26] = tested on: [Candida] zeylanoides; experiment: Antifungal activity against Candida zeylanoides NRLL Y-1774 after 48 hrs by broth microdilution method; assay type: functional; conditions: Dujonia zeylanoides, NRLL Y-1774, 48 h
[27] = tested on: Candida parapsilosis; experiment: Antifungal activity against Candida parapsilosis NRLL Y-12696 after 48 hrs by broth microdilution method; assay type: functional; conditions: Lodderomyces parapsilosis, NRLL Y-12696, 48 h
[28] = tested on: Aspergillus niger; experiment: Antifungal activity against Aspergillus niger ATCC-1094 after 72 hrs by broth microdilution method; assay type: functional; conditions: ATCC-1094, 72 h
[29] = tested on: Salmonella typhimurium; experiment: Genotoxicity in Salmonella typhimurium TA1535/pSK1002 assessed as growth factor at 0.156 mg/ml after 2 hrs by umuC assay in absence of Sprague-Dawley rat liver S9 fraction; assay type: toxicity, organism-based; conditions: salmonella enterica subsp. enterica serovar typhimurium
[30] = tested on: Salmonella typhimurium; experiment: Mutagenicity in Salmonella typhimurium TA98 at 2.5 mg/ml after 48 hrs by Ames MPF assay in absence of Sprague-Dawley rat liver S9 fraction; assay type: toxicity, organism-based; conditions: salmonella enterica subsp. enterica serovar typhimurium
[31] = tested on: Salmonella typhimurium; experiment: Mutagenicity in Salmonella typhimurium TA100 at 0.156 mg/ml after 48 hrs by Ames MPF assay in presence of Sprague-Dawley rat liver S9 fraction; assay type: toxicity, organism-based; conditions: salmonella enterica subsp. enterica serovar typhimurium, s9, 48 h
[32] = tested on: Salmonella typhimurium; experiment: Mutagenicity in Salmonella typhimurium TA100 at 0.625 mg/ml after 48 hrs by Ames MPF assay in presence of Sprague-Dawley rat liver S9 fraction; assay type: toxicity, organism-based; conditions: salmonella enterica subsp. enterica serovar typhimurium, s9, 48 h
[33] = tested on: Salmonella typhimurium; experiment: Mutagenicity in Salmonella typhimurium TA100 at 0.156 mg/ml after 48 hrs by Ames MPF assay in absence of Sprague-Dawley rat liver S9 fraction; assay type: toxicity, organism-based; conditions: salmonella enterica subsp. enterica serovar typhimurium
[34] = tested on: Salmonella typhimurium; experiment: Mutagenicity in Salmonella typhimurium TA100 at 0.3125 mg/ml after 48 hrs by Ames MPF assay in absence of Sprague-Dawley rat liver S9 fraction; assay type: toxicity, organism-based; conditions: salmonella enterica subsp. enterica serovar typhimurium
[35] = tested on: Salmonella typhimurium; experiment: Mutagenicity in Salmonella typhimurium TA100 at 0.625 mg/ml after 48 hrs by Ames MPF assay in absence of Sprague-Dawley rat liver S9 fraction; assay type: toxicity, organism-based; conditions: salmonella enterica subsp. enterica serovar typhimurium
[36] = Cytotoxicity against mouse NIH/3T3 cells after 24 hrs by XTT assay; assay type: cell-based; conditions: NIH3T3, 24 h
[37] = tested on: A549; experiment: Cytotoxicity against human A549 cells after 24 hrs by XTT assay; assay type: functional, cell-based; conditions: A549, 24 h

SMILES: Fc1ccc(F)c(/C=N/NC(=S)Nc2cccc3ccccc23)c1
- MIC [1]: 250 µg/mL (≈ 732 µM)
- MIC [2]: 250 µg/mL (≈ 732 µM)
- Activity [3]: 0.23
- Activity [4]: 0.121
- Activity [5]: 0.236
- Activity [6]: 0.137
- Activity [7]: 0.131
- fold induction at 2 h, 0.156 mg/ml [8]: 1.5
- fold induction at 2 h, 0.3125 mg/ml [9]: 1.4
- fold induction at 2 h, 0.625 mg/ml [10]: 5.34
- fold induction at 2 h, 1.25 mg/ml [11]: 2.81
- fold induction at 2 h, 0.3125 mg/ml [12]: 1.3
- fold induction at 2 h, 0.625 mg/ml [13]: 6
- fold induction at 2 h, 1.25 mg/ml [14]: 1.79
- fold induction at 2 h, 2.5 mg/ml [15]: 1.75
- fold change (FC) [16]: 0.65
- fold change (FC) [17]: 1.12
- fold change (FC) [18]: 0.28
- fold change (FC) [19]: 0.65
- fold change (FC) [20]: 0.56
- fold change (FC) [21]: 0.65
- fold change (FC) [22]: 0
- MIC [23]: 125 µg/mL (≈ 366 µM)
- MIC [24]: 250 µg/mL (≈ 732 µM)
- MIC [25]: 250 µg/mL (≈ 732 µM)
- MIC [26]: 250 µg/mL (≈ 732 µM)
- MIC [27]: 250 µg/mL (≈ 732 µM)
- MIC [28]: 250 µg/mL (≈ 732 µM)
- Activity [29]: 0.142
- fold change (FC) [30]: 0
- fold change (FC) [31]: 0.48
- fold change (FC) [32]: 0.44
- fold change (FC) [33]: 0.6
- fold change (FC) [34]: 0
- fold change (FC) [35]: 0.18
- IC50 [36]: > 500 µg/mL
- IC50 [37]: 500 µg/mL (≈ 1460 µM)

SMILES: Fc1cccc(/C=N/NC(=S)Nc2cccc3ccccc23)c1F
- MIC [1]: 250 µg/mL (≈ 732 µM)
- MIC [2]: 250 µg/mL (≈ 732 µM)
- Activity [3]: 0.121
- Activity [4]: 0.228
- Activity [5]: 0.231
- Activity [6]: 0.311
- Activity [7]: 0.146
- fold induction at 2 h, 0.156 mg/ml [8]: 5.34
- fold induction at 2 h, 0.3125 mg/ml [9]: 2.81
- fold induction at 2 h, 0.625 mg/ml [10]: 1.39
- fold induction at 2 h, 1.25 mg/ml [11]: 1.42
- fold induction at 2 h, 0.3125 mg/ml [12]: 1.79
- fold induction at 2 h, 0.625 mg/ml [13]: 1.75
- fold induction at 2 h, 1.25 mg/ml [14]: 1.63
- fold induction at 2 h, 2.5 mg/ml [15]: 5.25
- fold change (FC) [16]: 0.94
- fold change (FC) [17]: 0.84
- fold change (FC) [18]: 0.84
- fold change (FC) [19]: 0.84
- fold change (FC) [20]: 0.47
- fold change (FC) [21]: 0.56
- fold change (FC) [22]: 0
- MIC [23]: 125 µg/mL (≈ 366 µM)
- MIC [24]: 250 µg/mL (≈ 732 µM)
- MIC [25]: 250 µg/mL (≈ 732 µM)
- MIC [26]: 250 µg/mL (≈ 732 µM)
- MIC [27]: 250 µg/mL (≈ 732 µM)
- MIC [28]: 250 µg/mL (≈ 732 µM)
- Activity [29]: 0.14
- fold change (FC) [30]: 0
- fold change (FC) [31]: 1.02
- fold change (FC) [32]: 0.92
- fold change (FC) [33]: 0.48
- fold change (FC) [34]: 0.36
- fold change (FC) [35]: 0.42
- IC50 [36]: > 500 µg/mL
- IC50 [37]: 500 µg/mL (≈ 1460 µM)
